Data on four molecules can be found in paper PMC2633172 (The FASEB Journal, 2009).

The subject of test [1] is γ-IFN stimulated U937 cells. Kind of test: Phagocytosis of fluorescent bead complexes by flow cytometry. The class given is cell-based, human. The note with it: FITC-labeled bead complexes.
Test [2] has as its system γ-IFN stimulated U937 cells. The test can be described thus: Inhibition of superoxide burst triggered by bead-peptide 33 complexes. Conditions: soluble peptide; submaximal concentration of bead-peptide 33 complexes. The class given is cell-based, human.
The target in test [3] is Human FcγRI extracellular domain (human, UniProt P12314 16-292). Kind of test: AlphaScreen or HTRF.
Chain of Human FcγRI extracellular domain (P12314 16-292): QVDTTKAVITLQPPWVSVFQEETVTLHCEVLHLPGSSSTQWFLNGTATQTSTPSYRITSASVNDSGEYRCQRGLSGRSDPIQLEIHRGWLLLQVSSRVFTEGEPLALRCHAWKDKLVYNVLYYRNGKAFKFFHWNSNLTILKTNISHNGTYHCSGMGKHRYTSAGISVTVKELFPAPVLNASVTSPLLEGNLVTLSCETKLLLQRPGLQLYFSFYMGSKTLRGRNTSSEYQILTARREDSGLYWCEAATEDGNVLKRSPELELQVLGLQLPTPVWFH

Bridge positions count the residues as written; N and C are the ends. Ends that are not written are not given here. * marks the point of attachment. Biotin = O=C1N[C@H]2[C@H](CS[C@H]2CCCCC(=O)*)N1 Some results are limits rather than exact numbers.

In the case of “TDT C LMLPLLLG C DEE (disulfide) [peptide 22]”, the “internalized fluorescence relative to bead-IgG1 complexes” value in test [1] (2 h at 37°C, trypan blue quench, 10,000 cells) is not above 2 fold. The “bead-peptide signal intensity in the presence of IgG1” value in test [1] (with IgG1 (67 μM)) is recorded as “reduced to background”.
Take AQTDTSLMLPLLGSDEE [peptide 22 S4S13]: the “ability to prevent receptor-mediated functions triggered by multimeric peptide 33” value in test [2] was “only weakly able or unable”.
Turning to H-AQVNSCLLLPNLLGCGDDK(Biotin) (disulfide 6-15 (inferred)) [cyclic peptide 33], the binding result in test [3] is given as “binds”.
On the same count and under the same terms, the value for H-AQKDPCTRWAMLLGCDGEK(Biotin) (disulfide 6-15 (inferred)) [cyclic peptide 30] was “binds”.
